Experimental data published in patent US8859543B2, “Imidazo[1,2-a]pyrazine derivatives and their use for the prevention or treatment of neurological, psychiatric and metabolic disorders and diseases” (Janssen Pharmaceutica NV, priority 2010, dated 2014).
Like-named read-outs stand apart in the source and are kept apart here.

Tests used:
[1] = molecular target: T1, Rat recombinant PDE10A (rPDE10A2) (Rattus norvegicus, UniProt Q9QYJ6); test: In vitro assay PDE10A (SPA, 3H-cAMP); type: biochemical; settings: pIC50 corresponds to the -log IC50 expressed in mol/L; for IC50: read-out: PDE10A2 pIC50 (converted)
T1 construct: made in house; host or cells: Sf9 insect cells, baculovirus
T1 sequence (Q9QYJ6 1-794): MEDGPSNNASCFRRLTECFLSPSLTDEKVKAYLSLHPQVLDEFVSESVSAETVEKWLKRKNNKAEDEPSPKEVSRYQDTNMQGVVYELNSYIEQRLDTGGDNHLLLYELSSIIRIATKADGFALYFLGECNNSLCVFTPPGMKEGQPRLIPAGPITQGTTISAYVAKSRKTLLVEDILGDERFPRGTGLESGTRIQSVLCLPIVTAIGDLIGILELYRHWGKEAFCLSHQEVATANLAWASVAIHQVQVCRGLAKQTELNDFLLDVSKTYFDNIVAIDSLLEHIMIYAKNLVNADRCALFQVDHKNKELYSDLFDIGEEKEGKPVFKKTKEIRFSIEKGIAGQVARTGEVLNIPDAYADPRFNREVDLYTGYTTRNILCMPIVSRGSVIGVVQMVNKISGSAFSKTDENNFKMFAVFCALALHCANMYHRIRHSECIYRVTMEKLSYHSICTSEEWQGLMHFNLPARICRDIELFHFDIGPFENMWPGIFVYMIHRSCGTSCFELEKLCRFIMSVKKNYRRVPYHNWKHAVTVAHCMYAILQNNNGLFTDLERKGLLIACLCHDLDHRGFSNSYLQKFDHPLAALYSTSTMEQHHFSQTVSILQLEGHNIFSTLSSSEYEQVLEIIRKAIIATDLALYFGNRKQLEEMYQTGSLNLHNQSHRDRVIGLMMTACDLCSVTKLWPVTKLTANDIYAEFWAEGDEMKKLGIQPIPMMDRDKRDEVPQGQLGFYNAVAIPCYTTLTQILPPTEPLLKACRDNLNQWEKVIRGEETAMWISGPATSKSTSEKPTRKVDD
Experimental: Rat recombinant PDE10A (rPDE10A2) was expressed in Sf9 cells using a recombinant rPDE10A baculovirus construct. Cells were harvested after 48 h of infection and the rPDE10A protein was purified by metal chelate chromatography on Ni-sepharose 6FF. Tested compounds were dissolved and diluted in 100% DMSO to a concentration 100 fold of the final concentration in the assay. Compound dilutions (0.4 μl) were added in 384 well plates to 20 μl of incubation buffer (50 mM Tris pH 7.8, 8.3 mM MgCl2, 1.7 mM EGTA). 10 μl of rPDE10A enzyme in incubation buffer was added and the reaction was started by addition of 10 μl substrate to a final concentration of 60 nM cAMP and 0.008 μCi ^3H-cAMP. The reaction was incubated for 60 min. at RT. […] After sedimentation of the beads during 30 min. the radioactivity was measured in a Perkin Elmer Topcount scintillation counter and results were expressed as cpm. For blank values the enzyme was omitted from the reaction and replaced by incubation buffer. Control values were obtained by addition of a final concentration of 1% DMSO instead of compound. The same assay principle is applied for the measurement of the affinity of the compound for other members of the PDE family with appropriate modifications in incubation buffer, substrate concentration, incubation time and stop solution.

[2] = system: apomorphine-induced stereotypy; test: Apomorphine-induced stereotypy in rats (APO); type: in vivo; settings: Rattus norvegicus
Experimental: Apomorphine-Induced Stereotypy in Rats (APO)
Apomorphine (1.0 mg/kg, i.v.)-induced stereotypy (compulsive sniffing, licking, chewing) was scored every 5 min. over the first hour after injection of apomorphine, following a 1 hour interval pre-treatment with the test compound. The score system was: (3) pronounced, (2) moderate, (1) slight, and (O) absent.

[3] = not active at 2.5 or at 10 mg/kg, not further tested, read-out: APO ED50 (not active at threshold dose)

Structure (SMILES) | IC50 [1] [nM] | ED50 ([2]; read-out: APO ED50) [mg/kg] | ED50 [2, 3] [mg/kg] | PDE10A2 pIC50 [1] | ED50 ([2]; po, * compound was not soluble and was tested orally as a suspension, read-out: APO ED50) [mg/kg]
COC[C@H](C)n1cc(-c2c(C)nc3c(-c4ccncc4)nccn23)cn1 [compound 79] | 107 | 5 |  |  | 
Cc1nc2c(N3CCOCC3)nccn2c1-c1cnn(CC2CCCO2)c1 (single isomer, unassigned) [compound 71] | 95.5 | 5 |  |  | 
Cc1nc2c(N3CCOCC3)nccn2c1-c1ccnc(N2CCCC2)c1 [compound 99] | 151 |  | > 2.5 |  | 
Cc1nc2c(N3CCOCC3)nccn2c1-c1cnn(CCF)c1 [compound 96] | 141 | 5 |  |  | 
CCn1cc(-c2c(C)nc3c(N4CCOCC4)nccn23)cn1 [compound 38, 3-(1-Ethyl-1H-pyrazol-4-yl)-2-methyl-8-morpholin-4-yl-imidazo[1,2-a]pyrazine] |  | ≤ 10 |  | 6.63 | 
c1cn2c(-c3ccc(C4CCOCC4)nc3)c(C3CC3)nc2c(N2CCOCC2)n1 [compound 83] | 115 |  | > 2.5 |  | 
Cc1nc2c(N3CCOCC3)nccn2c1-c1cnn(Cc2ccc(Cl)cc2)c1 [compound 121] | 372 |  | > 2.5 |  | 
COC(C)(C)COc1ccc(-c2c(C)nc3c(N4CCOCC4)nccn23)cn1 [compound 3, 3-[6-(2-Methoxy-2-methyl-propoxy)-pyridin-3-yl]-2-methyl-8-morpholin-4-yl-imidazo[1,2-a]pyrazine] | 457 | 5 |  |  | 
CCOC(C)(C)c1ccc(-c2c(C)nc3c(N4CCOCC4)nccn23)cn1 [compound 55] | 57.5 |  | > 2.5 |  | 
COCCn1cc(-c2c(C#N)nc3c(N4CCOCC4)nccn23)cn1 [compound 40, 3-[1-(2-Methoxy-ethyl)-1H-pyrazol-4-yl]-8-morpholin-4-yl-imidazo[1,2-a]pyrazine-2-carbonitrile] |  | 5 |  | 7.07 | 
Cc1nc2c(N3CCOCC3)nccn2c1-c1cnn(CC2CC2)c1 [compound 62] | 79.4 |  | > 2.5 |  | 
Cc1nc2c(N3CCOCC3)nccn2c1-c1ccc(OCC2CC2)nc1 [compound 134] | 562 | ≤ 10 |  |  | 
Cc1nc2c(N3CCOCC3)nccn2c1-c1cnn(C2CCOC2)c1 (stereo not shown) [compound 82] | 115 | 3.1 |  |  | 
Cc1nc2c(-c3ccncc3)nccn2c1-c1cnn(CCO)c1 [compound 138] | 724 |  | > 2.5 |  | 
Cc1nc2c(-c3ccncc3)nccn2c1-c1ccc(N2CCOCC2)nc1 [compound 115] | 263 | 5 |  |  | 
COC(C)CCn1cc(-c2c(C)nc3c(N4CCOCC4)nccn23)cn1 (single isomer, unassigned) [compound 84] | 117 |  | > 2.5 |  | 
COCCn1cc(-c2cnc3c(N4CCOCC4)nccn23)cn1 [compound 141] | 955 | 5 |  |  | 
Cc1nc2c(N3CCOCC3)nccn2c1-c1ccnc(CC(C)C)c1 [compound 27, 3-(2-Isobutyl-pyridin-4-yl)-2-methyl-8-morpholin-4-yl-imidazo[1,2-a]pyrazine] | 74.1 |  | > 2.5 |  | 
Cc1nc2c(N3CCOCC3)nccn2c1-c1cnn(CC(F)(F)F)c1 [compound 49] |  | 5 |  | 7.33 | 
COC(C)CCn1cc(-c2c(C)nc3c(N4CCOCC4)nccn23)cn1 (single isomer, unassigned) [compound 61] | 79.4 | 5 |  |  | 
Cc1nc2c(N3CCOCC3)nccn2c1-c1ccnc(N2CCOCC2)c1 [compound 91] | 135 |  | > 2.5 |  | 
Cc1nc2c(N3CCOCC3)nccn2c1-c1cnn(Cc2ccccn2)c1 [compound 76] | 102 | 3.1 |  |  | 

Structure (SMILES) | IC50 [1] [nM] | ED50 ([2]; read-out: APO ED50) [mg/kg] | ED50 [2, 3] [mg/kg] | PDE10A2 pIC50 [1] | ED50 ([2]; po, * compound was not soluble and was tested orally as a suspension, read-out: APO ED50) [mg/kg]
Cc1nc2c(N3CCOCC3)nccn2c1-c1cnc(C(C)C)[nH]1 [compound 114] | 263 |  | > 2.5 |  | 
Cc1nc2c(N3CCOCC3)nccn2c1-c1cnn(CC2CCCO2)c1 (single isomer, unassigned) [compound 90] | 135 |  | > 2.5 |  | 
Cc1nc2c(N3CCOCC3)nccn2c1-c1cnn(CCN2CCOCC2)c1 [compound 116] | 275 |  | > 2.5 |  | 
Cc1nc2c(N3CCOCC3)nccn2c1-c1cnn(Cc2ccncc2)c1 [compound 77] |  | ≤ 10 |  | 6.99 | 
Cc1nc2c(N3CCOCC3)nccn2c1-c1cnn(CC2CCCCO2)c1 (single isomer, unassigned) [compound 58] | 67.6 |  | > 2.5 |  | 
COC[C@@H](C)n1cc(-c2c(C)nc3c(-c4ccncc4)nccn23)cn1 [compound 104] | 170 | 5 |  |  | 
Cc1nc2c(N3CCOCC3)nccn2c1-c1cnn(Cc2ccccc2Cl)c1 [compound 94] |  |  | > 2.5 | 6.86 | 
CO[C@@H](C)Cn1cc(-c2c(C)nc3c(-c4ccncc4)nccn23)cn1 [compound 101] | 162 | 3.1 |  |  | 
Cc1nc2c(N3CCOCC3)nccn2c1-c1cnn(Cc2ccc3ccccc3n2)c1 [compound 112] |  |  | > 2.5 | 6.63 | 
Cc1nc2c(N3CCOCC3)nccn2c1-c1cnn(CC(F)F)c1 [compound 56] | 57.5 |  |  |  | 3.1
CC(=O)CCn1cc(-c2c(C)nc3c(N4CCOCC4)nccn23)cn1 [compound 36, 4-[4-(2-Methyl-8-morpholin-4-yl-imidazo[1,2-a]pyrazin-3-yl)-pyrazol-1-yl]-butan-2-one] | 138 | 3.1 |  |  | 
Cc1nc2c(N3CCOCC3)nccn2c1-c1cnn(Cc2cccnc2)c1 [compound 65] | 85.1 | 5 |  |  | 
COCCn1cc(-c2c(C)nc3c(N4CCOCC4)nccn23)cn1 [compound 35, 2-Methyl-3-[1-(2-methoxy-ethyl)-1H-pyrazol-4-yl]-8-morpholin-4-yl-imidazo[1,2-a]pyrazine] |  | 5 |  |  | 
COC(C)(C)COc1ccc(-c2c(C3CC3)nc3c(N4CCOCC4)nccn23)cn1 [compound 105] | 174 |  | > 2.5 |  | 
CCC(COC)n1cc(-c2c(C)nc3c(N4CCOCC4)nccn23)cn1 (stereo not shown) [compound 111] | 219 |  | > 2.5 |  | 
COCCc1ccc(-c2c(C)nc3c(N4CCOCC4)nccn23)nc1 [compound 31, 3-[5-(2-Methoxy-ethyl)-pyridin-2-yl]-2-methyl-8-morpholin-4-yl-imidazo[1,2-a]pyrazine] |  |  | > 2.5 |  | 
CO[C@H]1CCN(c2ccc(-c3c(C)nc4c(N5CCOCC5)nccn34)cn2)C1 [compound 24, (S)-3-[6-(3-Methoxy-pyrrolidin-1-yl)-pyridin-3-yl]-2-methyl-8-morpholin-4-yl-imidazo[1,2-a]pyrazine] |  |  | > 2.5 |  | 
Cc1nc2c(N3CCOCC3)nccn2c1-c1ccc(CCOC(C)C)nc1 [compound 21, 3-[6-(2-Isopropoxy-ethyl)-pyridin-3-yl]-2-methyl-8-morpholin-4-yl-imidazo[1,2-a]pyrazine] |  | 1.2 |  |  | 
Cc1nc2c(N3CCOCC3)nccn2c1-c1ccc(CC(C)C)nc1 [compound 106] |  |  | > 2.5 |  | 
COCCc1ccc(-c2c(C(C)C)nc3c(N4CCOCC4)nccn23)cn1 [compound 13, 2-Isopropyl-3-[6-(2-methoxy-ethyl)-pyridin-3-yl]-8-morpholin-4-yl-imidazo[1,2-a]pyrazine] |  |  | > 2.5 |  | 
COCCc1cc(-c2c(C)nc3c(N4CCOCC4)nccn23)ccn1 [compound 19, 3-[2-(2-Methoxy-ethyl)-pyridin-4-yl]-2-methyl-8-morpholin-4-yl-imidazo[1,2-a]pyrazine] |  |  | > 2.5 |  | 
